Measurements reported in publication PMC12392461, “Beyond Estrogenicity: A Comparative Assessment of Bisphenol A and Its Alternatives in In Vitro Assays Questions Safety of Replacements” (Environmental Science & Technology, 2025).
Where two headings read alike, the source gives them in different places.

Tests used:
[1] = Abiotic CYP (aCYP) oxidation, remaining parent compound (Cparent-Ratio); conditions: for Cparent-Ratio Rep.1 %: Table S9, replicate 1; for Cparent-Ratio Rep.2 %: Table S9, replicate 2
Estrogen Receptor ERα = target: T1, Estrogen Receptor ERα (Homo sapiens, UniProt P03372); test: cell-based; conditions: for EC10, ERα (M): 10% of maximum effect of E2; for EC10, linear transformed / EC10, linear / logEC10: dosing range all; for SR-ScoreERα: SR-Score, sigma k=1, x=5; for Efficacy % / EC10 / REPBPA: This Study; for EC10: ERα; for REPBPA: relative estrogenic potency vs BPA; for Specificity ratio (SRbaseline) SRERα: against baseline cytotoxicity; for EC10, ERα: effect; for log(1/EC10) ERα: input of the ToxPi score, values up to 1.00; for Relative effect potency REPERα: relative to BPA
T1 sequence (P03372 311-547 limits assumed): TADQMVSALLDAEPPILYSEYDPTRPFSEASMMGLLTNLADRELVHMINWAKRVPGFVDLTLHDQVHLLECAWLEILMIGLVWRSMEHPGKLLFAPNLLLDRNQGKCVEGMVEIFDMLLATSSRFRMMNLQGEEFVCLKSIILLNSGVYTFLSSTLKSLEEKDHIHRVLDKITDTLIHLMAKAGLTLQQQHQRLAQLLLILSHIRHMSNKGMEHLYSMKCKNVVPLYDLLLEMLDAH
Outline: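 ERα-UAS-bla GripTite and PPARγ-UAS-bla β-lactamase reporter cells were seeded and held 24 h at 37 °C, 5% CO₂ before dosing. EC10 values used only concentrations below the IC10 from IncuCyte confluency. Emax% is the log-logistic curve maximum relative to the reference chemical's maximum.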

[2] = Table S9, loss of parent after aCYP oxidation
[3] = Table S9, mean of two replicate experiments
[4] = Table S9, replicate 1, as fraction
[5] = Table S9, replicate 2, as fraction
[6] = ERα bioassay, linear model, in M
[7] = ERα bioassay, log-logistic model
[8] = Table S11, measured simultaneously with bioassay
[9] = Bioassay ERα, log-logistic model fit

SMILES | % Loss [1, 2] [%] | Cparent-Ratio Mean [1, 3] | Cparent-Ratio Rep.1 % [1] [%] | Cparent-Ratio Rep.1 [1, 4] | Cparent-Ratio Rep.2 % [1] [%] | Cparent-Ratio Rep.2 [1, 5] | EC10, ERα (M) (Estrogen Receptor ERα) | EC10, linear transformed (Estrogen Receptor ERα; ERα bioassay, in M) | EC10, linear (Estrogen Receptor ERα; [6]) | logEC10 (Estrogen Receptor ERα; [7]) | SR-ScoreERα (Estrogen Receptor ERα) | Efficacy % (Estrogen Receptor ERα) [%] | EC10 (Estrogen Receptor ERα; in M) | REPBPA (Estrogen Receptor ERα) | Specificity ratio (SRbaseline) SRERα (Estrogen Receptor ERα) | EC10, ERα (Estrogen Receptor ERα) [mM] | log(1/EC10) ERα (Estrogen Receptor ERα) | Relative effect potency REPERα (Estrogen Receptor ERα) | % Loss ([1]; Table S11) [%] | Cparent-Ratio Mean [1, 8] | also measured
CC1(C)C(O)C(C)(C)C1O (racemic) [r-TMCD, 2,2,4,4-Tetramethyl-1,3-cyclobutanediol (racemate)] | 1.72 | 0.98 | 94.58 | 0.95 | 101.99 | 1.02 | 1.29 × 10^–2 M | 1.18E-02 | 1.29E-02 | -1.93 | 0.00722 | <20 | 1.29E-02 | 2.88E-05 | 0.08 | 12.9 | 0.24 | 2.88e-5 | – | – | REPBPA,ERα (relative effect potency in relation to BPA) (Estrogen Receptor ERα; EC10,BPA/EC10,BPx): 2.9 × 10^–5
CC(C)c1cc(C(C)(C)c2ccc(O)c(C(C)C)c2)ccc1O [BPG, 2,2-Bis(4-hydroxy-3-isopropylphenyl)propane] | 15 | 0.85 | 67.85 | 0.68 | 102.05 | 1.02 | 9.02 × 10^–7 M | – | – | – | 0.94 | 19.01 | 9.02E-07 | 4.11E-01 | 1.60 | 0.000902 | 0.77 | 0.41 | 34 | 0.66 | Cparent-Ratio Rep.1 [1, 8]: 0.79; Cparent-Ratio Rep.2 [1, 8]: 0.53; EC10, linear transformed (Estrogen Receptor ERα; Bioassay ERα, in M): 9.02E-07; EC10, linear (Estrogen Receptor ERα; Bioassay ERα, linear model fit, in M): 9.31E-07; logEC10 (Estrogen Receptor ERα; [9]): -6.04; Specificity ratio (SRcytotoxicity) SRERα (Estrogen Receptor ERα; against experimental cytotoxicity): 7.71; Emax (Estrogen Receptor ERα; read-out: Emax%ERα, maximum efficacy relative to E2): 19%
Cc1cc(Cc2cc(C)c(O)c(C)c2)cc(C)c1O [TMBPF, Bis(3,5-dimethyl-4-hydroxyphenyl)methane] | 31 | 0.69 | 58.94 | 0.59 | 79.26 | 0.79 | – | – | – | – | – | – | – | – | – | – | – | – | 56 | 0.44 | Cparent-Ratio Rep.1 [1, 8]: 0.29; Cparent-Ratio Rep.2 [1, 8]: 0.59; EC10, linear (Estrogen Receptor ERα; Bioassay ERα, linear model fit): no effect; logEC10 (Estrogen Receptor ERα; [9]): no effect; ERα activation (Estrogen Receptor ERα; at noncytotoxic concentrations): did not activate ERα at noncytotoxic concentrations; Emax (Estrogen Receptor ERα; read-out: Emax%ERα): 0%
CC1(C)[C@H](O)C(C)(C)[C@H]1O [Trans TMCD] | – | – | – | – | – | – | – | 3.18E-03 | 3.03E-03 | -2.47 | – | – | – | – | – | – | – | – | – | – | –
